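Assay format: 96-well plates, 48-hour exposure. TGI is the concentration that stops growth completely.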
Key:
Experiment in all cases: NCI tumour cell line growth inhibition, 48 h
[1] = test system: A498 renal
[2] = test system: DLD-1 colon
[3] = test system: DMS 114 small cell lung
[4] = test system: DMS 273 small cell lung
[5] = test system: HCT-15 colon
[6] = test system: HOP-18 NSCLC
[7] = test system: M14 melanoma
[8] = test system: M19-MEL melanoma
[9] = test system: MOLT-4 leukemia
[10] = test system: OVCAR-4 ovarian
[11] = test system: SNB-78 CNS
[12] = test system: XF 498 CNS
[13] = test system: KM20L2 colon
[14] = test system: LXFL 529 NSCLC
[15] = test system: RXF-631 renal
[16] = test system: HS 578T breast

Row | Compound | TGI [1] | TGI [2] | TGI [3] | TGI [4] | TGI [5] | TGI [6] | TGI [7] | TGI [8] | TGI [9] | TGI [10] | TGI [11] | TGI [12] | TGI [13] | TGI [14] | TGI [15] | TGI [16]
1 | CCOC(=O)C1=C(O)c2ccccc2C(=O)C1=O | > 100 µM | > 100 µM | > 100 µM | > 100 µM | > 100 µM | > 100 µM | > 100 µM | 54.4 µM | > 100 µM | > 100 µM | > 100 µM | > 100 µM |  |  |  | 
2 | CC(=O)c1c(O)ccc2c1CC(CC=O)O2 (stereo not drawn) |  | > 100 µM | 55.1 µM |  | > 100 µM |  | > 100 µM | > 100 µM | > 100 µM | > 100 µM | > 100 µM | > 100 µM | > 100 µM | > 100 µM | > 100 µM | 
3 | Cn1c(=O)c2c(nc(C[N+]3([O-])CCOCC3)n2C)n(C)c1=O |  | > 100 µM | > 100 µM | > 100 µM | > 100 µM |  | > 100 µM | > 100 µM | > 100 µM |  |  | > 100 µM | > 100 µM | > 100 µM |  | 
4 | O=C(O)c1cc(-c2ccccc2O)nc2ccccc12 | > 100 µM | > 100 µM | > 100 µM |  | > 100 µM | > 100 µM | > 100 µM | > 100 µM | > 100 µM | > 100 µM | > 100 µM | > 100 µM | > 100 µM | > 100 µM |  | 
5 | CCOC(=O)c1nc2ccc(Cl)cc2c2c1CCO2 | > 100 µM | > 100 µM | > 100 µM | > 100 µM | > 100 µM | > 100 µM | > 100 µM | > 100 µM | > 100 µM | > 100 µM | > 100 µM | > 100 µM | > 100 µM | > 100 µM |  | 
6 | COc1ccc(/C=C2\N=C(c3ccccc3)N(Nc3nnc(NN4C(=O)/C(=C/c5ccc(OC)cc5)N=C4c4ccccc4)c4ccccc34)C2=O)cc1 | > 100 µM | > 100 µM | > 100 µM | > 100 µM | > 100 µM | > 100 µM | > 100 µM | > 100 µM | > 100 µM | > 100 µM | > 100 µM |  | > 100 µM | > 100 µM |  | 
7 | Cc1cc(S(=O)(=O)Nc2nc(N)nc(N3CCOCC3)n2)c(SCC(=O)O)cc1Cl | > 10 µM |  |  |  | > 10 µM |  | > 10 µM |  | > 10 µM | > 10 µM |  |  |  |  |  | > 10 µM
8 | C/C(=N\NS(=O)(=O)c1ccc(C)cc1)C(CN(C)C)C(c1ccccc1)c1c(O)c2ccccc2oc1=O (stereo not drawn) | > 100 µM | > 100 µM |  |  | > 100 µM | > 100 µM | > 100 µM | > 100 µM | > 100 µM | > 100 µM | > 100 µM | > 100 µM | > 100 µM | > 100 µM | > 100 µM | > 100 µM
9 | COC1C=C(NCC2(CO)CCC2)NC(N)=N1 (stereo not drawn) | > 100 µM |  |  |  | > 100 µM |  | > 100 µM |  | > 100 µM | > 100 µM |  |  |  |  |  | > 100 µM
10 | COc1ccc(OC)c(NC(=O)C(=O)Nn2c(=S)[nH]c3ccccc3c2=O)c1 | > 100 µM |  |  |  | > 100 µM |  | > 100 µM |  | > 100 µM | > 100 µM |  |  |  |  |  | > 100 µM
11 | NC(=O)C12C3C4C1C1C2C3C41C(N)=O (stereo not drawn) | > 100 µM | > 100 µM | > 100 µM | > 100 µM | > 100 µM | > 100 µM | > 100 µM | > 100 µM | > 100 µM | > 100 µM |  |  | > 100 µM | > 100 µM |  | 

Reference: PubChem BioAssay (NCI)
